Assay in all cases: NCI-60 cell line screen, 48 h
Experiment [1] has as its system HCC-2998 colon.
The subject of experiment [2] is MALME-3M melanoma.
In experiment [3] the test system is RPMI-8226 leukemia.
Experiment [4] has as its system IGROV1 ovarian.
Experiment [5] concerns HCT-116 colon.
The subject of experiment [6] is KM12 colon.
The test system of experiment [7] is U251 CNS.
In experiment [8] the test system is OVCAR-5 ovarian.
Experiment [9] relates to TK-10 renal.
In experiment [10] the test system is SK-MEL-2 melanoma.
For experiment [11], the system named is NCI-H23 lung.
Experiment [12] concerns DU-145 prostate.

TGI data for 26 compounds are collected here from PubChem BioAssay (NCI).

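Protocol summary: plate cells (96-well), add compound at 5 concentrations, incubate 48 h, interpolate endpoints linearly. Definition used: TGI = concentration required for complete inhibition of growth.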

Regarding `COc1c(C)cc2c(C(C)C)c(O)c(O)c(C=O)c2c1O`, the TGI in [1] is above 100 µM; in experiment [2], 38.7 µM; in [3] it was above 100 µM; in experiment [4] it was above 100 µM; in [5], 52 µM; in [6], 56.1 µM. Moreover, the TGI was 57.9 µM in experiment [7]; 86 µM in [8]; above 100 µM in experiment [9]; 37.1 µM in experiment [10]; 47.8 µM in experiment [11].

For the compound `CCOC(=O)C(=O)C=P(c1ccccc1)(c1ccccc1)c1ccccc1`, the TGI in experiment [1], in [2], in experiment [3], in [4], in [5] and in experiment [6] was above 100 µM each time. Moreover, the TGI in experiment [7], in experiment [8], in experiment [9], in experiment [10] and in experiment [11] was above 100 µM in each case.

As to `N#CCc1c(-c2ccccc2)n(S(=O)(=O)c2ccccc2)c2ccccc12`, the TGI in [1], in experiment [2], in [3], in [4], in experiment [5] and in experiment [6] was above 100 µM throughout. Further, the TGI in experiment [7], in experiment [8], in experiment [9], in [10] and in experiment [11] was above 100 µM in each case.

As for `N/N=C1\C(=O)N(Cc2ccccc2)C(=O)C1C(=O)NCc1ccccc1` (configuration not stated), the TGI in experiment [1], in experiment [2], in experiment [3], in experiment [4], in experiment [5] and in experiment [6] was above 100 µM throughout. The TGI in experiment [7], in experiment [8], in experiment [9], in [10] and in [11] was above 100 µM in each case.

As for `CCCCCCCCCCCCOP(=O)(O)OP(=O)(O)OCC1OC(n2ccc(N)nc2=O)CC1O` (configuration not stated), the TGI in experiment [1], in experiment [2], in experiment [3], in experiment [4], in experiment [5] and in [6] was above 100 µM in each case. Also, the TGI in experiment [7], in [8], in experiment [9], in [10] and in [11] was above 100 µM each time.

Take `Clc1cc2nn(C3CCCCO3)nc2cc1Cl` (configuration not stated): the TGI in experiment [1], in experiment [2], in experiment [12], in [4], in experiment [5] and in experiment [6] was above 100 µM each time. Besides, the TGI in experiment [7], in experiment [8], in experiment [9], in experiment [10] and in experiment [11] was above 100 µM throughout.

As to `O=C(/C=C\c1cccc2ccccc12)c1ccc(F)cc1`, the TGI in experiment [1] was found to be 35.8 µM; in experiment [2], 32.1 µM; in experiment [4], 29.4 µM; in [5] it was 26.8 µM; in experiment [6], 28.8 µM; in experiment [7] it was 29.9 µM. In addition, the TGI in experiment [8] was determined as 33.2 µM; in experiment [9], 37.4 µM; in experiment [11] it was 45.1 µM.

In the case of `Cc1c[n+]2c3ccccc3c3ccccc3c2s1`, the TGI was 13.7 µM in [1]; 7.87 µM in experiment [2]; 57.8 µM in experiment [3]; above 100 µM in experiment [4]; above 70.1 µM in experiment [5]; 9.4 µM in experiment [6]. Also, the TGI in experiment [7] is 12.3 µM; in experiment [8] it was 12.8 µM; in experiment [9], above 70.9 µM; in experiment [10], 25.7 µM; in experiment [11], 3.9 µM.

Take `O=C/C1=C/C2=Cc3ccccc3C=C(/C=C(/C=O)C1)C2`: the TGI in experiment [1] is above 100 µM; in experiment [2], above 100 µM; in [3], above 100 µM; in [4], above 100 µM; in experiment [5], 48.3 µM; in experiment [6], above 100 µM. Moreover, the TGI in experiment [7], in [8], in [9], in experiment [10] and in [11] was above 100 µM each time.

Consider `CCOC(=O)Cn1c2ccccc2c(=O)c2cc(C)c(C)c(C#N)c21`, for which the TGI in experiment [1], in experiment [2], in experiment [3], in [4], in experiment [5] and in [7] was above 100 µM throughout. Moreover, the TGI in experiment [8], in experiment [9], in experiment [10] and in [11] was above 100 µM throughout.

Take `CCc1c2c(cc3c1CC1(C3)Cc3cc4c(c(C(=O)OC)c3C1)CCCC4)CCCC2` (configuration not stated): the TGI is above 100 µM in experiment [1]; above 100 µM in experiment [2]; above 100 µM in experiment [3]; above 100 µM in [4]; 65.1 µM in experiment [5]; above 100 µM in [6]. Moreover, the TGI in [7], in [8], in experiment [9], in [10] and in experiment [11] was above 100 µM in each case.

Turning to `CC12C3C4C1C1C2C3C41CO` (configuration not stated), the TGI in [12], in experiment [4], in experiment [5], in experiment [6], in experiment [7] and in experiment [8] was above 100 µM each time. Moreover, the TGI in experiment [9] and in experiment [10] was above 100 µM in each case.

Take `Cc1cccc(-n2c(N)c(-c3nc4ccccc4[nH]3)sc2=S)c1`: the TGI in experiment [2] was 74.4 µM; in [3], 57.4 µM; in experiment [4], 78 µM; in experiment [6], 52.2 µM; in [7] it was 43.2 µM; in experiment [8] it was above 100 µM. Further, the TGI in experiment [9] was 68.5 µM; in experiment [10], 62.3 µM; in experiment [11], above 100 µM.

Regarding `N#CC(/C(CCC(=O)Nc1ccc(Cl)cc1)=N/NC(=O)c1cc2ccccc2cc1O)c1ccccc1` (configuration not stated), the TGI in [1], in [2], in experiment [3], in [4], in [5] and in experiment [6] was above 100 µM throughout. In addition, the TGI in [7] is above 100 µM; in experiment [8], 60.6 µM; in experiment [9] it was above 100 µM; in [10], 61.2 µM; in experiment [11], above 100 µM.

As for `O=C(CN(C(=O)OC12CC3CC(CC(C3)C1)C2)C(=O)OC12CC3CC(CC(C3)C1)C2)Oc1ccc([N+](=O)[O-])cc1`, the TGI in experiment [1], in experiment [2], in experiment [4], in [5], in experiment [6] and in [7] was above 100 µM throughout. Further, the TGI in experiment [8], in experiment [9] and in [11] was above 100 µM in each case.

For `COC(=O)c1cc(C(=O)OC)c(CC(=O)C(=O)NC2C3CC4CC(C3)CC2C4)nc1CC(=O)C(=O)NC1C2CC3CC(C2)CC1C3` (configuration not stated), the TGI in [1], in experiment [2], in experiment [3], in experiment [4], in experiment [5] and in [6] was above 100 µM in each case. In addition, the TGI in [7], in experiment [8], in [9], in experiment [10] and in experiment [11] was above 100 µM each time.

`CCOC(=O)C1SC(=Nc2ccc(OC)c(OC)c2)N=C1C` (configuration not stated): the TGI in [1] was above 100 µM; in experiment [2] it was 83.4 µM; in experiment [4], above 100 µM; in experiment [5], above 100 µM; in experiment [6], above 100 µM; in experiment [7], above 100 µM. For the same compound, the TGI in [8], in [9], in experiment [10] and in [11] was above 100 µM throughout.

For `COc1ccc(C2=NN(c3ccccc3)C[N+](c3ccc(C)cc3)=N2)cc1`, the TGI in experiment [1] is above 100 µM; in [2], above 100 µM; in experiment [3], 67.4 µM; in experiment [4], above 100 µM; in experiment [5] it was above 100 µM; in experiment [6], above 10 µM. The TGI in experiment [7] is 45.3 µM; in experiment [8], 79.8 µM; in experiment [9], above 100 µM; in [11] it was above 100 µM.

For the compound `O=C(O)/C(Cl)=C(\Cl)C(=O)c1ccccc1`, the TGI in experiment [1], in experiment [2], in experiment [4], in [5], in [6] and in experiment [7] was above 100 µM throughout. The TGI in experiment [8], in experiment [9], in experiment [10] and in experiment [11] was above 100 µM each time.

As for `N#Cc1ccc(Cc2ccccn2)cc1Cl`, the TGI in experiment [2], in experiment [4], in experiment [6], in [7], in [8] and in experiment [9] was above 100 µM in each case. Further, the TGI in experiment [10] and in experiment [11] was above 100 µM throughout.

In the case of `CC(=O)OC(CC1(C)C(C)CCC23COC(=O)C2=CCCC31)c1ccoc1` (configuration not stated), the TGI in [1] came to 57.1 µM; in [2] it was 55.2 µM; in experiment [5] it was 61.6 µM; in experiment [6] it was 67.4 µM; in experiment [7] it was 29.3 µM; in experiment [8], 67.4 µM. Further, the TGI in experiment [10] came to 49.7 µM; in experiment [11], 54.5 µM.

For `CNC(=O)NCNC(=O)NC`, the TGI in experiment [1], in experiment [2], in experiment [3], in experiment [4], in experiment [5] and in experiment [6] was above 100 µM throughout. For the same compound, the TGI in experiment [7], in [8], in experiment [9], in experiment [10] and in experiment [11] was above 100 µM in each case.

Take `O=C(Nc1ccc(Cl)cc1C(F)(F)F)C(=O)C1CCCS1(=O)=O` (configuration not stated): the TGI in experiment [1] was above 100 µM; in experiment [2], above 100 µM; in experiment [3] it was above 100 µM; in experiment [4] it was above 10 µM; in experiment [5] it was above 100 µM; in [6], above 100 µM. In addition, the TGI in experiment [7], in experiment [8], in [9] and in experiment [11] was above 100 µM in each case.

For `CC(CCC[C@H](C)CO)[C@H]1[C@@H](O)C(O)C2[C@@H]3C[C@@H](O)C4(O)C[C@@H](O)CC[C@]4(C)C3CC[C@@]21C` (some centres not stated), the TGI in [1], in [2], in experiment [3], in experiment [4], in experiment [5] and in experiment [6] was above 100 µM throughout. For the same compound, the TGI in experiment [7], in experiment [9], in [10] and in experiment [11] was above 100 µM throughout.

With `COc1cc2c(c(OC)c1OC)-c1ccc(SC)c(=O)cc1C(CC(=O)Oc1cccc([N+](=O)[O-])c1)C2` (configuration not stated), the TGI is 0.849 µM in [1]; above 100 µM in experiment [2]; above 54.8 µM in experiment [3]; above 100 µM in experiment [4]; 3.72 µM in [5]; 5.4 µM in experiment [6]. In addition, the TGI in experiment [8], in [9] and in [10] was above 100 µM in each case.

Consider `c1cc(-c2ccc(-c3ccc(-c4ccc(-c5ccncc5)o4)cc3)o2)ccn1`, for which the TGI stood at 33.1 µM in experiment [1]; 34.7 µM in [2]; 28.2 µM in experiment [12]; 35.8 µM in [4]; 29.6 µM in experiment [5]; 32.2 µM in experiment [6]. Moreover, the TGI in [7] was found to be 35.3 µM; in experiment [8], 55.6 µM; in experiment [9], 31.2 µM; in experiment [11], 39.1 µM.
